Molecules are shown by their SMILES.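 Grown in 96-well plates, cells were treated for 48 hours with each compound at five concentrations. Insufficient inhibition: endpoint recorded as highest concentration tested. TGI marks complete inhibition of growth.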

The first test relates to SK-MEL-28 melanoma. The test can be described thus: NCI anticancer screen, dose series, 48 h.
In the case of `O=C1N[C@@H]2c3c(csc3Br)C(=O)[C@@H]2O1`, the TGI was greater than 100 µM.

The molecule `Cc1cc(C)c2c(n1)S(=O)(=O)N(CCCN1CCN(c3cccc(C(F)(F)F)c3)CC1)/C(=C(\O)c1ccc(Cl)cc1)C2=O` showed a TGI of 29.8 µM.

`CCn1c(=O)c2c3cc(O)ccc3oc2c2ccc(O)cc21` showed a TGI greater than 100 µM.

Take `O=C1CCC(NC(=O)c2ccccc2)C(=O)N1` (stereo unspecified): the TGI is greater than 100 µM.

In a further test the test system is SK-MEL-5 melanoma. The test can be described thus: NCI anticancer screen, dose series, 48 h.
As for `O=C1N[C@@H]2c3c(csc3Br)C(=O)[C@@H]2O1`, the TGI is greater than 100 µM.

On to `Cc1cc(C)c2c(n1)S(=O)(=O)N(CCCN1CCN(c3cccc(C(F)(F)F)c3)CC1)/C(=C(\O)c1ccc(Cl)cc1)C2=O`, for which the TGI is 6.22 µM.

In the case of `CCn1c(=O)c2c3cc(O)ccc3oc2c2ccc(O)cc21`, the TGI was greater than 100 µM.

For `O=C1CCC(NC(=O)c2ccccc2)C(=O)N1` (stereo unspecified), the TGI was greater than 100 µM.

In the next test the test system is SK-OV-3 ovarian. The test can be described thus: NCI anticancer screen, dose series, 48 h.
`O=C1N[C@@H]2c3c(csc3Br)C(=O)[C@@H]2O1` came in with a TGI greater than 100 µM.

In turn, `Cc1cc(C)c2c(n1)S(=O)(=O)N(CCCN1CCN(c3cccc(C(F)(F)F)c3)CC1)/C(=C(\O)c1ccc(Cl)cc1)C2=O` came in with a TGI of 20.3 µM.

Turning to `CCn1c(=O)c2c3cc(O)ccc3oc2c2ccc(O)cc21`, the TGI was greater than 100 µM.

`O=C1CCC(NC(=O)c2ccccc2)C(=O)N1` (stereo unspecified) yielded a TGI greater than 100 µM.

Another test concerns SN12C renal. The test can be described thus: NCI anticancer screen, dose series, 48 h.
With `O=C1N[C@@H]2c3c(csc3Br)C(=O)[C@@H]2O1`, the TGI was greater than 100 µM.

`Cc1cc(C)c2c(n1)S(=O)(=O)N(CCCN1CCN(c3cccc(C(F)(F)F)c3)CC1)/C(=C(\O)c1ccc(Cl)cc1)C2=O`: the TGI is 13.8 µM.

The molecule `CCn1c(=O)c2c3cc(O)ccc3oc2c2ccc(O)cc21` showed a TGI greater than 100 µM.

`O=C1CCC(NC(=O)c2ccccc2)C(=O)N1` (stereo unspecified): the TGI was greater than 100 µM.

The subject of another test is SNB-19 CNS. The test can be described thus: NCI anticancer screen, dose series, 48 h.
In turn, `O=C1N[C@@H]2c3c(csc3Br)C(=O)[C@@H]2O1` registered a TGI greater than 100 µM.

The molecule `Cc1cc(C)c2c(n1)S(=O)(=O)N(CCCN1CCN(c3cccc(C(F)(F)F)c3)CC1)/C(=C(\O)c1ccc(Cl)cc1)C2=O` gave a TGI of 16.6 µM.

In the case of `CCn1c(=O)c2c3cc(O)ccc3oc2c2ccc(O)cc21`, the TGI was greater than 100 µM.

`O=C1CCC(NC(=O)c2ccccc2)C(=O)N1` (stereo unspecified) had a TGI greater than 100 µM.

For a further test, the system named is SNB-75 CNS. The test can be described thus: NCI anticancer screen, dose series, 48 h.
Molecule `O=C1N[C@@H]2c3c(csc3Br)C(=O)[C@@H]2O1` came in with a TGI greater than 100 µM.

The molecule `Cc1cc(C)c2c(n1)S(=O)(=O)N(CCCN1CCN(c3cccc(C(F)(F)F)c3)CC1)/C(=C(\O)c1ccc(Cl)cc1)C2=O` yielded a TGI of 8.04 µM.

Molecule `CCn1c(=O)c2c3cc(O)ccc3oc2c2ccc(O)cc21` showed a TGI greater than 100 µM.

`O=C1CCC(NC(=O)c2ccccc2)C(=O)N1` (stereo unspecified) came in with a TGI greater than 100 µM.

A further test concerns SR leukemia. The test can be described thus: NCI anticancer screen, dose series, 48 h.
`O=C1N[C@@H]2c3c(csc3Br)C(=O)[C@@H]2O1`: the TGI came to 74.1 µM.

With `Cc1cc(C)c2c(n1)S(=O)(=O)N(CCCN1CCN(c3cccc(C(F)(F)F)c3)CC1)/C(=C(\O)c1ccc(Cl)cc1)C2=O`, the TGI is greater than 100 µM.

Molecule `CCn1c(=O)c2c3cc(O)ccc3oc2c2ccc(O)cc21` returned a TGI of 63.5 µM.

`O=C1CCC(NC(=O)c2ccccc2)C(=O)N1` (stereo unspecified) yielded a TGI greater than 100 µM.

A further test concerns SW-620 colon. The test can be described thus: NCI anticancer screen, dose series, 48 h.
Turning to `O=C1N[C@@H]2c3c(csc3Br)C(=O)[C@@H]2O1`, the TGI was determined as 50.5 µM.

For `Cc1cc(C)c2c(n1)S(=O)(=O)N(CCCN1CCN(c3cccc(C(F)(F)F)c3)CC1)/C(=C(\O)c1ccc(Cl)cc1)C2=O`, the TGI worked out at 39 µM.

In turn, `CCn1c(=O)c2c3cc(O)ccc3oc2c2ccc(O)cc21` came in with a TGI greater than 100 µM.

On to `O=C1CCC(NC(=O)c2ccccc2)C(=O)N1` (stereo unspecified), for which the TGI was greater than 100 µM.

A further test concerns T-47D breast. The test can be described thus: NCI anticancer screen, dose series, 48 h.
`O=C1N[C@@H]2c3c(csc3Br)C(=O)[C@@H]2O1` returned a TGI of 99 µM.

For the molecule `Cc1cc(C)c2c(n1)S(=O)(=O)N(CCCN1CCN(c3cccc(C(F)(F)F)c3)CC1)/C(=C(\O)c1ccc(Cl)cc1)C2=O`, the TGI was determined as 38.9 µM.

Take `CCn1c(=O)c2c3cc(O)ccc3oc2c2ccc(O)cc21`: the TGI is 36.5 µM.

`O=C1CCC(NC(=O)c2ccccc2)C(=O)N1` (stereo unspecified): the TGI is greater than 100 µM.

Another test deals with TK-10 renal. The test can be described thus: NCI anticancer screen, dose series, 48 h.
`O=C1N[C@@H]2c3c(csc3Br)C(=O)[C@@H]2O1` showed a TGI of 80.3 µM.

`Cc1cc(C)c2c(n1)S(=O)(=O)N(CCCN1CCN(c3cccc(C(F)(F)F)c3)CC1)/C(=C(\O)c1ccc(Cl)cc1)C2=O` showed a TGI of 11.9 µM.

`CCn1c(=O)c2c3cc(O)ccc3oc2c2ccc(O)cc21` had a TGI greater than 100 µM.

For `O=C1CCC(NC(=O)c2ccccc2)C(=O)N1` (stereo unspecified), the TGI is greater than 100 µM.

For a further test, the system named is U251 CNS. The test can be described thus: NCI anticancer screen, dose series, 48 h.
With `O=C1N[C@@H]2c3c(csc3Br)C(=O)[C@@H]2O1`, the TGI came to 69.2 µM.

Take `Cc1cc(C)c2c(n1)S(=O)(=O)N(CCCN1CCN(c3cccc(C(F)(F)F)c3)CC1)/C(=C(\O)c1ccc(Cl)cc1)C2=O`: the TGI is 14.3 µM.

As to `CCn1c(=O)c2c3cc(O)ccc3oc2c2ccc(O)cc21`, the TGI is greater than 100 µM.

`O=C1CCC(NC(=O)c2ccccc2)C(=O)N1` (stereo unspecified) returned a TGI greater than 100 µM.

The test system of a further test is UACC-257 melanoma. The test can be described thus: NCI anticancer screen, dose series, 48 h.
Molecule `O=C1N[C@@H]2c3c(csc3Br)C(=O)[C@@H]2O1` yielded a TGI of 58.9 µM.

Regarding `Cc1cc(C)c2c(n1)S(=O)(=O)N(CCCN1CCN(c3cccc(C(F)(F)F)c3)CC1)/C(=C(\O)c1ccc(Cl)cc1)C2=O`, the TGI came to 8.49 µM.

Molecule `CCn1c(=O)c2c3cc(O)ccc3oc2c2ccc(O)cc21` gave a TGI greater than 100 µM.

`O=C1CCC(NC(=O)c2ccccc2)C(=O)N1` (stereo unspecified): the TGI was greater than 100 µM.

In another test the test system is UACC-62 melanoma. The test can be described thus: NCI anticancer screen, dose series, 48 h.
As to `O=C1N[C@@H]2c3c(csc3Br)C(=O)[C@@H]2O1`, the TGI is greater than 100 µM.

As for `Cc1cc(C)c2c(n1)S(=O)(=O)N(CCCN1CCN(c3cccc(C(F)(F)F)c3)CC1)/C(=C(\O)c1ccc(Cl)cc1)C2=O`, the TGI stood at 18.3 µM.

In turn, `CCn1c(=O)c2c3cc(O)ccc3oc2c2ccc(O)cc21` returned a TGI greater than 100 µM.

Take `O=C1CCC(NC(=O)c2ccccc2)C(=O)N1` (stereo unspecified): the TGI was greater than 100 µM.

Another test has as its system UO-31 renal. The test can be described thus: NCI anticancer screen, dose series, 48 h.
Take `O=C1N[C@@H]2c3c(csc3Br)C(=O)[C@@H]2O1`: the TGI came out at 58.4 µM.

In turn, `Cc1cc(C)c2c(n1)S(=O)(=O)N(CCCN1CCN(c3cccc(C(F)(F)F)c3)CC1)/C(=C(\O)c1ccc(Cl)cc1)C2=O` yielded a TGI of 10.8 µM.

As for `CCn1c(=O)c2c3cc(O)ccc3oc2c2ccc(O)cc21`, the TGI turned out to be 46.6 µM.

`O=C1CCC(NC(=O)c2ccccc2)C(=O)N1` (stereo unspecified) gave a TGI greater than 100 µM.
